Our source for the binding values is paper PMC9881143 (2023).

The test system of assay [1] is THF-II-lotiTL (RNA, riboswitch) GGCGUGGUCCGUUCAACUCGUUCCUCGAAAGAGGAACUACGGGAGACGCC
Briefly: X-ray crystallography. To be noted: co-crystal, 0.1 M sodium citrate pH 6.5, 1.5-2.5 M ammonium sulfate, 16 °C; RNA:ligand 1:5.

For assay [2], the system named is THF-II-lotiTL C22G mutant (THF-II-lotiTL-C22G) (RNA, riboswitch) GGCGUGGUCCGUUCAAGUCGUUCCUCGAAAGAGGAACUACGGGAGACGCC
Description: ITC. The following applies: K+ 100 mM, Mg2+ (concentration not stated for this titration); 20 mM Tris-HCl pH 7.5, 1 mM TCEP, 25 °C; 0.75 mM ligand in syringe into 30 μM RNA.

The subject of assay [3] is THF-II-lotiTL C22U mutant (RNA, riboswitch) GGCGUGGUCCGUUCAAUUCGUUCCUCGAAAGAGGAACUACGGGAGACGCC
Description: ITC. The following applies: K+ 100 mM, Mg2+ (concentration not stated for this titration); 20 mM Tris-HCl pH 7.5, 1 mM TCEP, 25 °C; 0.75 mM ligand in syringe into 30 μM RNA.

The test system of assay [4] is THF-II-lotiTL U44C mutant (RNA, riboswitch) GGCGUGGUCCGUUCAACUCGUUCCUCGAAAGAGGAACCACGGGAGACGCC
Briefly: ITC. To be noted: K+ 100 mM, Mg2+ (concentration not stated for this titration); 20 mM Tris-HCl pH 7.5, 1 mM TCEP, 25 °C; 0.75 mM ligand in syringe into 30 μM RNA.

The subject of assay [5] is THF-II-lotiTL U44A mutant (RNA, riboswitch) GGCGUGGUCCGUUCAACUCGUUCCUCGAAAGAGGAACAACGGGAGACGCC
Briefly: ITC. The following applies: K+ 100 mM, Mg2+ (concentration not stated for this titration); 20 mM Tris-HCl pH 7.5, 1 mM TCEP, 25 °C; 0.75 mM ligand in syringe into 30 μM RNA.

With `Nc1nc2c(c(=O)[nH]1)N=C([C@H](O)[C@H](O)CO)CN2`, the binding entry in assay [1] was “yes”.
`C[C@H](O)[C@H](O)[C@H]1CNc2nc(N)[nH]c(=O)c2N1`: the binding result in assay [1] was “yes”.
Consider `Nc1nc2[nH]ccc2c(=O)[nH]1`, for which the binding entry in assay [1] is on record as “yes”.
For the compound `Nc1nc2c(c(=O)[nH]1)N[C@@H](CNc1ccc(C(=O)N[C@@H](CCC(=O)O)C(=O)O)cc1)CN2`, the binding entry in assay [2], in assay [3], in assay [4] and in assay [5] was “no” each time.
